Common to all, as to type: cell-based
The test system of one data set is CEM. Description: In vitro cytotoxicity, growth inhibition by counting surviving cells, CEM. The note with it: Homo sapiens, CCRF-CEM, cells incubated with the compound for 1 h, at least two experiments, read-out: IC50 (50% inhibitory concentration), Mean ± SE. As for the experimental part:
(§1) 1. The results of in vivo test of Ia on disseminated P388/DX murine leukemia are shown in Tab.2.
(§2) ^1 Cells incubated with the compound for 1 h.
(§3) ^2 50% inhibitory concentration represents the mean ± SE from
(§4) dose-response curves of at least two experiments
(§5) ^3 Growth inhibition determined by counting surviving cells.

The test system of the next data set is JURKAT. Description: In vitro cytotoxicity, growth inhibition by counting surviving cells, JURKAT. Particulars: Homo sapiens, cells incubated with the compound for 1 h, at least two experiments, read-out: IC50 (50% inhibitory concentration), Mean ± SE. As for the experimental part: as §1, §2, §3, §4, §5
Another data set deals with LoVo. Description: In vitro cytotoxicity, growth inhibition by SRB colorimetric assay, LoVo. Particulars: Homo sapiens, cells incubated with the compound for 1 h, at least two experiments, read-out: IC50 (50% inhibitory concentration), Mean ± SE. As to the method: as §1, §2, §3, §4
^4 Growth inhibition determined by SRB colorimetric assay.
(Sulforhodamine B stains cellular protein and so reports cell mass.)

In data set [1] the test system is panel of murine and human tumor cell lines. Description: In vitro cytotoxicity on a panel of murine and human tumor cell lines.
Excerpt: The compounds according to the invention are useful in methods of treatment of the human or animal body by therapy. They are useful as anti-tumor agents. They are useful in the treatment of leukemia and solid tumors, such as colon, colon-rectal, ovarian, mammary, prostate, lung, kidney and also melanoma tumors. A human can therefore be treated by a method comprising administering thereto a therapeutically effective amount of a compound of the invention. The condition of the human patient can thus be improved. The dosage to be given can be ascertained using known dosage ranges in the field of anthracyclines, modified by reference to the activity shown by the present compounds in in vitro and in vivo anti-tumor tests. Suitable dosages are generally in the range of 1 to 200 mg/m^2 body surface, preferably from 1 to 100 mg/m^2, depending on the nature and severity of the disease being treated and on the general condition of the patient. The compounds of formula I were tested and found active in vitro against a panel of murine and human tumor cell lines, and in vivo on disseminated P388/DX murine leukemia.
as §1

A further data set deals with L1210. The data set is described as follows: In vitro cytotoxicity, growth inhibition by counting surviving cells, L1210. Particulars: Mus musculus, cells incubated with the compound for 1 h, at least two experiments, read-out: IC50 (50% inhibitory concentration), Mean ± SE. As for the experimental part: as §1, §2, §3, §4, §5

Take `CC(O)[C@]1(O)Cc2c(O)c3c(c(O)c2[C@@H](O[C@H]2C[C@H](N4CC4)[C@H](OS(C)(=O)=O)[C@H](C)O2)C1)C(=O)c1ccccc1C3=O` (mixture of isomers) [Ia, 13(R/S)-Dihydro-4-Demethoxy-3'-Deamino-3'-Aziridinyl-4'-Methansulfonyl Daunorubicin]: the IC50 was determined as 5.86 ± 0.4 ng/mL in the data set on CEM, 4.87 ± 0.7 ng/mL with JURKAT, 20.3 ± 2 ng/mL with LoVo and 3.76 ± 0.13 ng/mL with L1210. Moreover, the “cytotoxicity / in vitro activity in words” value in data set [1] is recorded as “high cytotoxicity”.
